Experimental data published in US20240217951A1, “PCSK9 INHIBITORS AND METHODS OF USE THEREOF” (AstraZeneca AB, priority 2022, published 2024).

Key:
[1] = biological target: GSK3β (Glycogen synthase kinase-3 beta) (Homo sapiens, UniProt P49841); experiment: Assay 6 - GSK3β assay (ThermoFisher Z-Lyte); assay type: biochemical; conditions: geometric mean; ATP Conc: 10 μM; read-out: Assay 6 (GSK3β FRET-Z-Lyte CR) GMean IC50 (μM) ATP Conc: 10
Outline: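 Z-Lyte fluorescence kinase assay with 0.22-0.92 ng GSK3β and 2 μM Ser/Thr 09 peptide in 50 mM HEPES pH 7.5, 10 mM MgCl2, 1 mM EGTA, 0.01% BRIJ-35. Kinase reaction 60 min at room temperature, then 60 min development. 10-point 3-fold titration from 10 μM in 1% DMSO, fitted to a sigmoidal dose-response curve.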

PCSK9 = PCSK9 (Homo sapiens, UniProt Q8NBP7, G670E/V474I); experiment: biochemical
[2] = biological target: T1, hERG potassium ion channel (Homo sapiens, UniProt Q12809); experiment: Assay 5 - hERG assay (SyncroPatch 384PE patch clamp, CHO cells); assay type: cell-based; conditions: human, CHO-K1 cells over-expressing hERG, pH 7.4, geometric mean, read-out: Assay 5 (hERG Hu CHO IF EPh CR-Syncro) GMean IC50
T1 construct: expressed in transfected cells; host or cells: Chinese hamster ovary K1 (CHO)
Outline: (§1)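 Automated high-throughput patch clamp on CHO-K1 cells overexpressing hERG at room temperature, KF/KCl internal with escin, NMDG-containing external at pH 7.4. Six-point cumulative compound addition, 0.33% DMSO final; wells kept only with seal >30 MΩ, Z′ >0.4 and current >0.2 nA.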

human PCSK9 = biological target: T2, human PCSK9 (Homo sapiens, UniProt Q8NBP7); experiment: Assay 2 - Biophysical human PCSK9 assay (SPR, Biacore); assay type: binding; conditions: geometric mean; SPR at 30° C; read-out: Assay 2 (PCSK9 BIAcore DBA CR) GMean Kd
T2 construct: biotinylated human PCSK9 (31-692)-Avi-His6; His6 (C)
Protocol: Assay 2—Biophysical Human PCSK9 Assay
The SPR binding experiments were performed on a Biacore S200 optical biosensor unit at 30° C. A Series S Sensor Chip SA that is designed to bind biotinylated molecules for interaction analysis in Biacore systems was equilibrated at room temperature prior to use. The running buffer for protein tethering and subsequent ligand binding experiments was 10 mM HEPES pH 7.4, 150 mM NaCl, 0.05% (v/v) Tween 20 pH 7.4.
For the surface tethering of PCSK9, biotinylated human PCSK9 (31-692)-Avi-His6 at a concentration of 0.5 mg/mL was used. Prior to the surface tethering, the surface was exposed to a solution of 50 mM NaOH, 500 mM NaCl via 3 consecutive injections of this solution with a contact time of 60 s and a flowrate of 10 μL min^−1 to remove non-conjugated streptavidin. The PCSK9 protein was diluted to a concentration of 20 μg/mL using running buffer and injected with a contact time of 180-300 s and a flowrate of 10 μL min^−1 over a single flow channel (typically flow channel 2 or flow channel 4) with the aim to achieve protein capture levels of >5000 response units (RU). Remaining biotin binding sites were blocked via 2 consecutive injections of a 10 μM D-biotin solution in running buffer with a contact time of 60 s and a flowrate of 10 μL min^−1 over all flow-channels. Flow-channels 1 and 3 typically served as a reference surface throughout the subsequent binding experiments.
The binding experiments were all performed at a flow rate of 30 PL min^−1 and by employing the method of single-cycle kinetics. This approach involves the sequential injection of a compound concentration series without regeneration steps. A contact time between 90-150 s was selected, which was followed by a 40 min dissociation phase to allow for a proper estimation of the dissociation rate constant. Test compounds were delivered in DMSO at a concentration of 10 mM and a digital dispenser HP D300 was used to set up the compound concentration series using 6 concentrations. The tested concentrations have been 30, 100, 300, 1000, 3000 and 10000 nM. Prior to injecting any compound, the surfaces were equilibrated by injecting running buffer over them in three separate pulses. The data collection rate was set to 10 Hz.
The raw sensorgrams of the compound injections were first subjected to reference subtraction (subtracting the signal from flow channel 1 and/or 3 from the signal from channels 2 and/or 4 respectively) and then blank subtraction (subtracting the signal from injecting DMSO controls from the reference subtracted data). The resulting double-referenced sensorgrams were then fitted using a 1:1 binding interaction model using the manufactures software package to extract kinetic- and affinity data. Active compounds have been defined by creating a detectable binding signal at the highest compound concentration ([…]) of 3 RUs. Kinetic- and affinity data on active compounds are only provided for those compounds where the binding signal at the highest compound concentration ([…]) is 50% of the theoretical maximum binding signal for a 1:1 binding interaction (Rmax, typically between 15-20 RUs) in order to enable a proper fitting of the data.

[3] = biological target: T3, potassium ion channel hERG (human Ether-á-go-go-Related Gene) (Homo sapiens, UniProt Q12809); experiment: Assay 5 - hERG assay (SyncroPatch 384PE patch clamp, CHO cells); assay type: cell-based; conditions: geometric mean; CHO cells over-expressing hERG; read-out: Assay 5 (hERG Hu CHO IF EPh CR-Syncro) GMean IC50
T3 construct: expressed in transfected cells; host or cells: Chinese hamster ovary K1 (CHO)
Outline: as §1

[4] = clinical trials, patients; alirocumab compared to placebo; cited from earlier work

T2 sequence (Q8NBP7 31-692): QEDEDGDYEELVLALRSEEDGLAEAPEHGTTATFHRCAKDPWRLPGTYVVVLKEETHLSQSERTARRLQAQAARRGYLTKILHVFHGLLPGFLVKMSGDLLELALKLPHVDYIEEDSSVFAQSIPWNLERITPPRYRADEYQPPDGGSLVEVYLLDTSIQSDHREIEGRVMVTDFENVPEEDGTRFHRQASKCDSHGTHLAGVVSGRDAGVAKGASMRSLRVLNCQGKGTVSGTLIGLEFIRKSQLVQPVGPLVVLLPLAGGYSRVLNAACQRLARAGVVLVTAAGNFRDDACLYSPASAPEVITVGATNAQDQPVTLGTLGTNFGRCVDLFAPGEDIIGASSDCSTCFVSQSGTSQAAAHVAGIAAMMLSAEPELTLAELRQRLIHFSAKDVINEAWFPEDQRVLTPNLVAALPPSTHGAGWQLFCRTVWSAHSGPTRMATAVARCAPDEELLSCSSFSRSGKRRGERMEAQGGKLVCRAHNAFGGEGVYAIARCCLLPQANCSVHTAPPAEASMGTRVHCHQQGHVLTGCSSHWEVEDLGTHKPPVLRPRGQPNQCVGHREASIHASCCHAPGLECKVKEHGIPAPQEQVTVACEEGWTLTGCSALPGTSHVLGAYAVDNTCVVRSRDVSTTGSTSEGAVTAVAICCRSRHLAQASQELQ
T3 sequence (Q12809 whole entry): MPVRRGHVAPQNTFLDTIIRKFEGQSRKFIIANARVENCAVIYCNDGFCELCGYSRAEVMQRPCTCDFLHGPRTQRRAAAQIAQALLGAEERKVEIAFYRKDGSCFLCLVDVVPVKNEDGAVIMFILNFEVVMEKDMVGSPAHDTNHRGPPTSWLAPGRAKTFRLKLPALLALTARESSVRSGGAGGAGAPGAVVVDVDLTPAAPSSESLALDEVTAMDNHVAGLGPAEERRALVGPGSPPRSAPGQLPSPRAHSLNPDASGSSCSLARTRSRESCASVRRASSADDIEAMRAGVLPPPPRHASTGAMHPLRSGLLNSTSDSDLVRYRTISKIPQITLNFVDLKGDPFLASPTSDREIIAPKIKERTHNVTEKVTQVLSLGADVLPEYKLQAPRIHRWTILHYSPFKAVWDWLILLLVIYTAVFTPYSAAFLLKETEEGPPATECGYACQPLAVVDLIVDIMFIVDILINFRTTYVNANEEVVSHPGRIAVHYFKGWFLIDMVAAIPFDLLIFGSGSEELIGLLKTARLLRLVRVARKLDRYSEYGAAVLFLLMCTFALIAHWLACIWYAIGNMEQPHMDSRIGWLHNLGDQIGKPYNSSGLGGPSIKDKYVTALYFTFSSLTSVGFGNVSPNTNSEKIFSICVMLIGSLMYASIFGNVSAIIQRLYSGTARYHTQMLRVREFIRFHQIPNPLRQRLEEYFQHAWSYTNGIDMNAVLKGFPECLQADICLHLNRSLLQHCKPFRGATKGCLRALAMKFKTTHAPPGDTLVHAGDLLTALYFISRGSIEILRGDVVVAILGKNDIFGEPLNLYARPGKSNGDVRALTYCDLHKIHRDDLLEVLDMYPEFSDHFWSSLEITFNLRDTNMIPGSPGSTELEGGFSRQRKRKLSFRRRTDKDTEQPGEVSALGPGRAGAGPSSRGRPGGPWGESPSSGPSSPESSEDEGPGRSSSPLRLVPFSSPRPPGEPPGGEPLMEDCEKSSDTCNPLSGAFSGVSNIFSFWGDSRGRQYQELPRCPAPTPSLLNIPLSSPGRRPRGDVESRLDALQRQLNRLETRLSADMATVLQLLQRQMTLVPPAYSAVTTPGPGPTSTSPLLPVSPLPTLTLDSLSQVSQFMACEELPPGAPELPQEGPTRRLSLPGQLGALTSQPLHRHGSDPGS
Chain of PCSK9 (Q8NBP7 with tags, fused parts or gaps V474I/G670E): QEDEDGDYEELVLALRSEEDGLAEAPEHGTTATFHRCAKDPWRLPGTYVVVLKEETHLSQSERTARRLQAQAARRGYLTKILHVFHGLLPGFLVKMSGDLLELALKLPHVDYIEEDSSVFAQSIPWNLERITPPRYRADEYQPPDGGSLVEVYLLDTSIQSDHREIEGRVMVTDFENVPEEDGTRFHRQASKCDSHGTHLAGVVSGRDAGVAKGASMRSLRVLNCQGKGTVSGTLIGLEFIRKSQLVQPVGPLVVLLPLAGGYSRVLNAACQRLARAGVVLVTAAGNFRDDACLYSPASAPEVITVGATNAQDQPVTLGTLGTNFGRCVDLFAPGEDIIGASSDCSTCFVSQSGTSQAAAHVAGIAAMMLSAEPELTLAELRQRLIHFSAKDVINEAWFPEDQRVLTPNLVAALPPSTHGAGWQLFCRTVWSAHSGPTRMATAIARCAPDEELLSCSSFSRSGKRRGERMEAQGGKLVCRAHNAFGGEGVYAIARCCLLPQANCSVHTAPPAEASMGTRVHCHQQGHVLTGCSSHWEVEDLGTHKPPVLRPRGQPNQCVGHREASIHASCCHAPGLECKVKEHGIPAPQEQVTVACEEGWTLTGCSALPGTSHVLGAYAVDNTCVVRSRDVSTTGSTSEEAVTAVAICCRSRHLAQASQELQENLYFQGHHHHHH
Chain of GSK3β (Glycogen synthase kinase-3 beta) (P49841 whole entry): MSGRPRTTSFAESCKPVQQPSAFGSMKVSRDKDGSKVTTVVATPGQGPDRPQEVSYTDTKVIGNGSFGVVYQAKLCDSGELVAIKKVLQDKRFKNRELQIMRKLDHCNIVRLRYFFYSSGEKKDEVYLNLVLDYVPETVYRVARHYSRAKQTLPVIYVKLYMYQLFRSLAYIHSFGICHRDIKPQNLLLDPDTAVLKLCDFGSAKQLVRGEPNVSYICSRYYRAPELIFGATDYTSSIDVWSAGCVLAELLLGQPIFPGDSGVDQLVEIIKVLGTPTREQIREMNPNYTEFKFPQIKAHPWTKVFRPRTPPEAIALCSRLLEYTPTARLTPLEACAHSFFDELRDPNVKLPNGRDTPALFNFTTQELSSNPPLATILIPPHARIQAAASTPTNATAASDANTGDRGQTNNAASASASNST
T1 sequence (Q12809 whole entry): as the sequence (Q12809 whole entry) above

Compound | IC50 [1] | IC50 (PCSK9) | IC50 [2] | Kd (human PCSK9) | IC50 [3] | decrease in LDL levels [4]
Cc1nc(N[C@H]2CC[C@H](Nc3cnc(OC(F)F)cn3)C2)ccc1-n1ccccc1=O [Example 97, 6′-(((1S,3S)-3-((5-(Difluoromethoxy)pyrazin-2-yl)amino)cyclopentyl)amino)-2′-methyl-2H-[1,3′-bipyridin]-2-one] | > 10 µM | 0.063 µM | 35.4 µM | 0.026 µM |  | 
O=c1ccccn1-c1ccc(N[C@H]2CC[C@H](Nc3cnc4cccnc4n3)C2)nc1 [Example 143, 6′-(((1S,3S)-3-(Pyrido[2,3-b]pyrazin-3-ylamino)cyclopentyl)amino)-2H-[1,3′-bipyridin]-2-one] | > 10 µM | 2.39 µM |  | 1.54 µM | > 40 µM | 
COc1cccc2ncc(N[C@H]3CC[C@H](Nc4ccc(-n5ccccc5=O)cn4)C3)nc12 [Example 144, 6′-(((1S,3S)-3-((8-Methoxyquinoxalin-2-yl)amino)cyclopentyl)amino)-2H-[1,3′-bipyridin]-2-one] | 2.34 µM | 0.484 µM |  | 0.336 µM | > 35 µM | 
O=c1ccccn1-c1ccc(N[C@H]2CC[C@H](Nc3cnc4c(F)cccc4n3)C2)nc1 [Example 145, 6′-(((1S,3S)-3-((5-Fluoroquinoxalin-2-yl)amino)cyclopentyl)amino)-2H-[1,3′-bipyridin]-2-one] | > 10 µM | 0.96 µM |  | 0.637 µM | 18.5 µM | 
Nc1ccc2ncc(N[C@H]3CC[C@H](Nc4ccc(-n5ccccc5=O)cn4)C3)nc2n1 [Example 146, 6′-(((1S,3S)-3-((6-Aminopyrido[2,3-b]pyrazin-3-yl)amino)cyclopentyl)amino)-2H-[1,3′-bipyridin]-2-one] | > 10 µM | 1.48 µM |  | 1.5 µM | > 40 µM | 
Cc1cnc(N[C@H]2CC[C@H](Nc3ccc(-n4nc(C)ccc4=O)cn3)C2)cn1 [Example 231, 6-Methyl-2-(6-(((1S,3S)-3-((5-methylpyrazin-2-yl)amino)cyclopentyl)amino)pyridin-3-yl)pyridazin-3 (2H)-one] | > 10 µM | 0.046 µM |  | 0.035 µM | > 40.1 µM | 
Cc1cnc(N[C@H]2CC[C@H](Nc3ccc(-n4nccc(C#N)c4=O)cn3)C2)cn1 [Example 278, 2-(6-(((1S,3S)-3-((5-Methylpyrazin-2-yl)amino)cyclopentyl)amino)pyridin-3-yl)-3-oxo-2,3-dihydropyridazine-4-carbonitrile] | > 10 µM | 0.013 µM |  | 0.012 µM | > 40.1 µM | 
alirocumab |  |  |  |  |  | about 50%
